One block for each compound: values may come before it.
Experiments:
mice [1] = test: In vivo delivery of FLuc-mRNA lipid nanoparticles in mice, in vivo imaging (IVIS)
Method in brief: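 Mice (n=3) received about 75 μL FLuc-mRNA LNP per mouse intramuscularly (rectus femoris), intravenously (tail vein), intraperitoneally or subcutaneously (back). After injection, D-luciferin (200 μL, 15 mg/mL) was given i.p. 10-15 min before IVIS imaging.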

[2] = Particle size and PDI of nucleic acid lipid nanoparticle preparations by dynamic light scattering; assay type: physicochemical
Method in brief: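 LNP solution (about 0.04 mg/mL mRNA before dilution) was diluted in ultrapure water and mixed by gentle pipetting. Particle size and PDI were then measured by dynamic light scattering.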

[3] = Potential characterization of nucleic acid lipid nanoparticle preparations; assay type: physicochemical
Method in brief: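 Nanoparticles (about 0.04 mg/mL mRNA) were diluted in ultrapure water for Malvern ZEN3700 measurement: 20 μL into 780 μL for potential alone, or 27.5 μL into 200 μL for DLS particle size followed by addition of 600 μL water for potential.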

mice [4] = test: In vivo delivery of FLuc-circ-RNA lipid nanoparticles in mice; conditions: Fluc-circ-RNA LNP; for IVIS: organ not given
Description: Lipid nanoparticles loaded with nucleic acid drugs were prepared according to step 2, replacing FLuc-mRNA with FLuc-circ-RNA (Hongene Biotech Corporation, Shanghai). After formulation, the nanoparticles were administered via intramuscular injection (into the quadriceps femoris muscle of mice), intravenous injection (into the tail vein of mice), intraperitoneal injection, or subcutaneous injection (subcutaneously on the back). Approximately 75 μL was injected per mouse, with a total of 3 mice per group. In vivo imaging (PerkinElmer, IVIS Lumina III) was performed after a certain period of time. Ten to fifteen minutes before imaging, 200 μL of a 15 mg/mL D-Luciferin working solution was injected intraperitoneally, followed by imaging analysis using the in vivo imaging system.

[5] = DMG-PEG2000:DOPE:Chol:compound 1.40:11.15:38.95:48.50, N/P 30
[6] = DMG-PEG2000:DSPC:Chol:compound 1.00:11.50:27.50:60.00, N/P 30
[7] = Fluc-circ-RNA LNP, preparation given IV
[8] = DMG-PEG2000:DSPC:Chol:compound 1.00:10.00:33.00:56.00, N/P 42
[9] = Fluc-circ-RNA LNP, preparation given IM
[10] = N/P 30, formulation cells blank (line above: DMG-PEG2000:DSPC:Chol:compound 1.00:10.00:33.00:56.00)
[11] = DMG-PEG2000:DSPC:Chol:Lipid 1.40:11.15:38.95:48.50, N/P 10, IV, liver
[12] = DMG-PEG2000:DSPC:Chol:Lipid 1.40:11.15:38.95:48.50, N/P 10, IV, lung
[13] = DMG-PEG2000:DSPC:Chol:Lipid 1.40:11.15:38.95:48.50, N/P 10, IV, spleen
[14] = DMG-PEG2000:DSPC:Chol:Lipid 1.40:11.15:38.95:48.50, N/P 10, mRNA LNP, preparation given IH
[15] = DMG-PEG2000:DSPC:Chol:Lipid 1.40:11.15:38.95:48.50, N/P 10, mRNA LNP, preparation given IV
[16] = DMG-PEG2000:DSPC:Chol:compound 1.40:11.15:38.95:48.50, N/P 30

PDI [2, 5]: 0.38 | Particle size (nm) [2, 5]: 78.75 nm | PDI [2, 6]: 0.23 | Particle size (nm) [2, 6]: 157.00 nm | PDI [2, 7]: 0.24 | Particle size (nm) [2, 7]: 161.2 nm | Zeta potential (mV) [3, 7]: 14.23 mV
SMILES: [2H]C([2H])([2H])[N+](CCCN(CC(O)C(=O)NCCCCCCCCCCCC)CC(O)C(=O)NCCCCCCCCCCCC)(CCCN(CC(O)C(=O)NCCCCCCCCCCCC)CC(O)C(=O)NCCCCCCCCCCCC)C([2H])([2H])[2H] (centres unmarked) [Compound L0346]
IVIS (mice [1]; IM, DMG-PEG2000:DOPE:Chol:compound 1.40:11.15:38.95:48.50, N/P 30, Fluc-mRNA): 3.49E+05 | IVIS (mice [1]; IV, body, DMG-PEG2000:DOPE:Chol:compound 1.40:11.15:38.95:48.50, N/P 30, Fluc-mRNA): 1.95E+08 | IVIS (mice [1]; IV, body, DMG-PEG2000:DSPC:Chol:compound 1.00:11.50:27.50:60.00, N/P 30, Fluc-mRNA): 3.93E+08 | % of organ targeting (mice [1]; IV, liver, DMG-PEG2000:DOPE:Chol:compound 1.40:11.15:38.95:48.50, N/P 30): 0.84% | IVIS (mice [1]; IV, liver, DMG-PEG2000:DOPE:Chol:compound 1.40:11.15:38.95:48.50, N/P 30, Fluc-mRNA): 2.65E+06 | % of organ targeting (mice [1]; IV, liver, DMG-PEG2000:DSPC:Chol:compound 1.00:11.50:27.50:60.00, N/P 30): 0.56% | IVIS (mice [1]; IV, liver, DMG-PEG2000:DSPC:Chol:compound 1.00:11.50:27.50:60.00, N/P 30, Fluc-mRNA): 7.32E+06 | % of organ targeting (mice [1]; IV, lung, DMG-PEG2000:DOPE:Chol:compound 1.40:11.15:38.95:48.50, N/P 30): 98.01% | IVIS (mice [1]; IV, lung, DMG-PEG2000:DOPE:Chol:compound 1.40:11.15:38.95:48.50, N/P 30, Fluc-mRNA): 3.10E+08 | % of organ targeting (mice [1]; IV, lung, DMG-PEG2000:DSPC:Chol:compound 1.00:11.50:27.50:60.00, N/P 30): 98.90% | IVIS (mice [1]; IV, lung, DMG-PEG2000:DSPC:Chol:compound 1.00:11.50:27.50:60.00, N/P 30, Fluc-mRNA): 1.28E+09 | % of organ targeting (mice [1]; IV, spleen, DMG-PEG2000:DOPE:Chol:compound 1.40:11.15:38.95:48.50, N/P 30): 1.16% | IVIS (mice [1]; IV, spleen, DMG-PEG2000:DOPE:Chol:compound 1.40:11.15:38.95:48.50, N/P 30, Fluc-mRNA): 3.66E+06 | % of organ targeting (mice [1]; IV, spleen, DMG-PEG2000:DSPC:Chol:compound 1.00:11.50:27.50:60.00, N/P 30): 0.54% | IVIS (mice [1]; IV, spleen, DMG-PEG2000:DSPC:Chol:compound 1.00:11.50:27.50:60.00, N/P 30, Fluc-mRNA): 6.96E+06 | % of organ targeting (mice [4]; IV, liver): 0.87% | % of organ targeting (mice [4]; IV, lung): 98.45% | % of organ targeting (mice [4]; IV, spleen): 0.69%

PDI [2, 8]: 0.10 | Particle size (nm) [2, 8]: 108.93 nm | PDI [2, 9]: 0.15 | Particle size (nm) [2, 9]: 106.57 nm | PDI [2, 10]: 0.10 | Particle size (nm) [2, 10]: 89.30 nm | Zeta potential (mV) [3, 9]: 11.37 mV | Zeta potential (mV) [3, 10]: 9.98 mV
SMILES: CCCCCCC(CCCCCC)C(=O)OCCCCCCOC(=O)C(O)CN(CCCN(C)CCCN(CC(O)C(=O)OCCCCCCOC(=O)C(CCCCCC)CCCCCC)CC(O)C(=O)OCCCCCCOC(=O)C(CCCCCC)CCCCCC)CC(O)C(=O)OCCCCCCOC(=O)C(CCCCCC)CCCCCC (centres unmarked) [Compound L0293]
IVIS (mice [1]; IM, N/P 30, formulation cells blank (line above: DMG-PEG2000:DSPC:Chol:compound 1.00:10.00:33.00:56.00), Fluc-mRNA): 3.61E+07 | IVIS (mice [1]; IV, body, DMG-PEG2000:DSPC:Chol:compound 1.00:10.00:33.00:56.00, N/P 42, Fluc-mRNA): 3.11E+08 | % of organ targeting (mice [1]; IV, liver, DMG-PEG2000:DSPC:Chol:compound 1.00:10.00:33.00:56.00, N/P 42): 18.15% | IVIS (mice [1]; IV, liver, DMG-PEG2000:DSPC:Chol:compound 1.00:10.00:33.00:56.00, N/P 42, Fluc-mRNA): 5.63E+07 | % of organ targeting (mice [1]; IV, lung, DMG-PEG2000:DSPC:Chol:compound 1.00:10.00:33.00:56.00, N/P 42): 3.34% | IVIS (mice [1]; IV, lung, DMG-PEG2000:DSPC:Chol:compound 1.00:10.00:33.00:56.00, N/P 42, Fluc-mRNA): 1.03E+07 | % of organ targeting (mice [1]; IV, spleen, DMG-PEG2000:DSPC:Chol:compound 1.00:10.00:33.00:56.00, N/P 42): 78.51% | IVIS (mice [1]; IV, spleen, DMG-PEG2000:DSPC:Chol:compound 1.00:10.00:33.00:56.00, N/P 42, Fluc-mRNA): 2.43E+08 | IVIS (mice [4]; IM): 1.02E+08

PDI [2, 14]: 0.16 ± 0.01 | Particle size [2, 14]: 127.47 ± 2.05 nm | Particle size ([2]; DMG-PEG2000:DSPC:Chol:Lipid 1.40:11.15:38.95:48.50, N/P 10, mRNA LNP, preparation given IM): 111.27 ± 0.84 nm | PDI [2, 15]: 0.06 ± 0.02 | Particle size [2, 15]: 131.20 ± 1.25 nm | PDI [2, 9]: 0.09 | Particle size (nm) [2, 9]: 90.08 nm | PDI [2, 7]: 0.19 | Particle size (nm) [2, 7]: 65.67 nm
SMILES: CCCCCCCCCCCOC(=O)CCCCCN(CCO)CCCCCCCC(=O)OC(CCCCCCCC)CCCCCCCC [SM-102, reference compound]
IVIS (mice [1]; DMG-PEG2000:DSPC:Chol:Lipid 1.40:11.15:38.95:48.50, N/P 10, IH, whole body scan): 1.62 × 10^7 | IVIS (mice [1]; DMG-PEG2000:DSPC:Chol:Lipid 1.40:11.15:38.95:48.50, N/P 10, IM, whole body scan): 6.67 × 10^7 | IVIS (mice [1]; DMG-PEG2000:DSPC:Chol:Lipid 1.40:11.15:38.95:48.50, N/P 10, IV, body): 1.02 × 10^8 | % of organ targeting (mice [1]; [11]): 61.21% | IVIS (mice [1]; [11]): 1.99 × 10^7 | % of organ targeting (mice [1]; [12]): 0.96% | IVIS (mice [1]; [12]): 3.11 × 10^5 | % of organ targeting (mice [1]; [13]): 37.83% | IVIS (mice [1]; [13]): 1.23 × 10^7 | tissue-targeting specificity (lung vs spleen depending on molar percentage of compound) (mice [1]; certain formulations, Table 2): not observed | IVIS (mice [4]; IM): 2.06E+09 | IVIS (mice [4]; IV): 1.06E+09

PDI [2, 16]: 0.22 | Particle size (nm) [2, 16]: 96.63 nm | Zeta potential (mV) [3, 16]: 19.13 mV
SMILES: CCCCCCCCCCCCCCOC(=O)C(O)CN(CCN(C)CCN(CC(O)C(=O)OCCCCCCCCCCCCCC)CC(O)C(=O)OCCCCCCCCCCCCCC)CC(O)C(=O)OCCCCCCCCCCCCCC (centres unmarked) [Compound L0338]
IVIS (mice [1]; IM, DMG-PEG2000:DSPC:Chol:compound 1.40:11.15:38.95:48.50, N/P 30, Fluc-mRNA): 3.98E+05 | IVIS (mice [1]; IV, body, DMG-PEG2000:DSPC:Chol:compound 1.40:11.15:38.95:48.50, N/P 30, Fluc-mRNA): 8.55E+06 | % of organ targeting (mice [1]; IV, liver, DMG-PEG2000:DSPC:Chol:compound 1.40:11.15:38.95:48.50, N/P 30): 11.14% | IVIS (mice [1]; IV, liver, DMG-PEG2000:DSPC:Chol:compound 1.40:11.15:38.95:48.50, N/P 30, Fluc-mRNA): 8.81E+05 | % of organ targeting (mice [1]; IV, lung, DMG-PEG2000:DSPC:Chol:compound 1.40:11.15:38.95:48.50, N/P 30): 3.68% | IVIS (mice [1]; IV, lung, DMG-PEG2000:DSPC:Chol:compound 1.40:11.15:38.95:48.50, N/P 30, Fluc-mRNA): 2.91E+05 | % of organ targeting (mice [1]; IV, spleen, DMG-PEG2000:DSPC:Chol:compound 1.40:11.15:38.95:48.50, N/P 30): 85.18% | IVIS (mice [1]; IV, spleen, DMG-PEG2000:DSPC:Chol:compound 1.40:11.15:38.95:48.50, N/P 30, Fluc-mRNA): 6.73E+06
